Measured values taken from patent publication US20250026779A1 (priority 2023, published 2025).

Tests used:
[1] = system: Balb/c mice; experiment: In vivo expression of Lucia mRNAs containing cap analogs; details: Lucia mRNA capped with the compound, compared with Cap1 (FIG. 1C)
Method: Candidate RNAs were formulated using proprietary lipid-based delivery vehicles (e.g., as described in WO 2020/069442 and WO 2023/014931) and administered to Balb/c mice at a dose of 15 μg per mouse. In life serum draws were conducted via submandibular vein at selected time points starting 2 hours post-dose. Serum was diluted 5 μL into […] of QUANTI-Luc reagent (InvivoGen, San Diego, CA, USA) and measured immediately using a plate reader (Molecular Devices, San Jose, CA, USA).

[2] = molecular target: T1, HiScribe T7 RNA synthesis kit (IVT reaction, DNA template encoding Lucia) (Escherichia phage T7, UniProt P00573); experiment: In vitro transcription (IVT) of mRNAs containing cap analogs: yield / incorporation; assay type: biochemical
T1 construct: purchased New England Biolabs
T1 sequence (P00573 whole entry): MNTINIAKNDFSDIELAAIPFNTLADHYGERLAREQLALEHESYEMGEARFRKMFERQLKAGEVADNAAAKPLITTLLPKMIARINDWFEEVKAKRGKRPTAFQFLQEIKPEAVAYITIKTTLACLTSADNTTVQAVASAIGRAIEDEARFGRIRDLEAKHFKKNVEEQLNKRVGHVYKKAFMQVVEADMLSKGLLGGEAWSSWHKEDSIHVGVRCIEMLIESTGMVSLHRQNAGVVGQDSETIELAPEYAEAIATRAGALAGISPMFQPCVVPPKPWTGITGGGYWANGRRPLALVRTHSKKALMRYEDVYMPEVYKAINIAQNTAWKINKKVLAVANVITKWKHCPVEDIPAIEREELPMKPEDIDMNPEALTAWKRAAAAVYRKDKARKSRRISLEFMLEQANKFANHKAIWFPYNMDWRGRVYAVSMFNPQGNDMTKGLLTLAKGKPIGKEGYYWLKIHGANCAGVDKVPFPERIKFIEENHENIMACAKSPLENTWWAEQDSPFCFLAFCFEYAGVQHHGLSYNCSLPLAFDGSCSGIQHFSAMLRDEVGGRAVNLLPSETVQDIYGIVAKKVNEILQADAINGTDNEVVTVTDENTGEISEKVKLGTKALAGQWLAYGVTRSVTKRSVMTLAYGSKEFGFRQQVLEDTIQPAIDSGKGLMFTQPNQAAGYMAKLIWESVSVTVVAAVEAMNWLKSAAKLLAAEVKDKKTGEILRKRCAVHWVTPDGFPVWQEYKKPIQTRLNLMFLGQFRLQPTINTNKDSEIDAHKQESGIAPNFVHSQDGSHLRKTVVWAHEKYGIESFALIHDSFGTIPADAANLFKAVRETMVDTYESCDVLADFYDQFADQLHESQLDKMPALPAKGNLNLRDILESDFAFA
Method: mRNA was transcribed from DNA template encoding Lucia using HiScribe T7 RNA synthesis kit (New England Biolabs, Ipswich, MA, USA). N^1-Methylpseudo-UTP (TniLink, San Diego, CA, USA) was used in replaced of UTP for the reaction. For 5′ capping of the mRNA, the cap analog compounds (e.g., Compounds 1-4) described herein, or CleanCap (TriLink, San Diego, CA, USA), were added to the IVT reaction, as indicated. The reactions were performed for 4 hours at 37° C.
Purification of the transcript was performed by TURBO DNase digestion (ThermoFisher Scientific, Waltham, MA, USA) for 30 min at 37° C. followed by RNAClean XP beads (Beckman Coulter) clean up. The RNA bound beads were washed 3 times with freshly prepared 70% ethanol, air dried for 15 minutes followed by elution in 200 μL of nuclease free water. The purified mRNA was quantified using nanodrop (ThermoFisher Scientific, Waltham, MA, USA) and analyzed using Tapestation (Agilent, Santa Clara, CA, USA).

[3] = system: human Dendritic Cells (differentiated from PBMCs); experiment: Cap immunogenicity by multiplexed cytokine screening (Luminex) in dendritic cells; assay type: cell-based; details: human DCs, 24 hours, compared with Cap1 (FIGS. 3A-3F)
Method: Fresh human Dendritic Cells (differentiated from PBMCs by GM-CSF+IL-4 stimulation) were plated at 5e4 cells per well in 96 well flat TC treated dish. mRNA was prepared in Lipofectamine MessengerMAX transfection reagent according to manufacturer's instructions at 2ng/1 k cells. Briefly, mRNA was diluted to 0.02 μg/μl in Opti-MEM reduced serum medium and mixed 1:1 with MessengerMAX to a concentration of 0.01 μg/μl. Two 1:10 dilutions were performed and 10 or 2.5 μl per well of each dilution was added directly to DCs in resulting doses of 2, 0.5, 0.2, 0.05 and 0.02 ng per 1000 DCs. Immunostimulatory RIG-1 agonist Hairpin RNA (3p-hpRNA, InvivoGen) and double stranded RNA (5′ ppp-dsRNA, InvivoGen) were used as controls and formulated as described above.
Stimulated DCs were incubated for 24 hours at 37° C. with 5% CO2. Supernatant was collected and immediately frozen at −80° C. It was subsequently thawed and prepared for Luminex xMAP analysis using a Human Inflammation 20-Plex ProcartaPlex Panel kit (ThermoFisher) according to the manufacturer's instructions. Data was acquired on a MAGPIX system (Luminex xMAP instrument) and pg/mL values for each analyte were derived from a standard curve generated with kit components. Values outside the range of the standard curve were reported as mean fluorescence intensity (MFI).

CC[n+]1cn([C@@H]2O[C@H](COP(=O)(O)OP(=O)([O-])OP(=O)(O)OC[C@H]3O[C@@H](n4cnc5c(N)ncnc54)[C@H](OC)[C@@H]3OP(=O)(O)OC[C@H]3O[C@@H](n4cnc5c(=O)[nH]c(N)nc54)[C@H](O)[C@@H]3O)[C@@H](O)[C@H]2O)c2nc(N)[nH]c(=O)c21 [Compound 1]
in vivo expression [1]: equivalently
IVT yield ([2]; mRNA capped with the compound, compared with Cap1 (FIG. 1A)): equivalently
incorporation into IVT ([2]; trinucleotide cap modified at the 7G position): successfully incorporated

CC[n+]1cn([C@@H]2O[C@H](COP(=O)(O)OP(=O)(O)OP(=O)(O)OC[C@H]3O[C@@H](n4cnc5c(N)ncnc54)[C@H](OC)[C@@H]3O[P@@]([O-])(=S)OC[C@H]3O[C@@H](N4C=NC5C(=O)NC(N)=NC54)[C@H](O)[C@@H]3O)[C@@H](O)[C@H]2O)c2nc(N)[nH]c(=O)c21 (stereo partly shown) [Compound 3]
immunogenicity across key cytokine markers (IFNγ, IFNα, IP-10, IL-1α, TNFα) [3]: lower
